Measured values from PMC6675551, “Mass spectrometry–driven exploration reveals nuances of neoepitope-driven tumor rejection” (JCI Insight, 2019).

What was measured:
[1] = test system: Meth A fibrosarcoma tumor cells; assay: Tumor rejection after immunization with neoepitope-pulsed BMDCs and Meth A challenge; type: in vivo, BALB/cJ mice; conditions: for Tumor rejection activity (in words): immunized twice 1 week apart with neoepitope-pulsed BMDCs (3 × 10^6), challenge with 95,000 Meth A cells 1 week later, CTLA4 blockade except TGAARFDEF
Source text: The 8 MS-defined neoepitopes were used to immunize naive BALB/cJ mice twice, 1 week apart, with neoepitope-pulsed bone marrow–derived dendritic cells (BMDCs, 3 × 10^6) as adjuvants, as previously published ([22]). All mice were challenged with 95,000 Meth A tumor cells 1 week after the second immunization, and tumor growth was monitored in individual mice (Figure 2, A and B). […] The TCI score parameterizes the tumor rejection, tumor inhibition, and tumor stability scores to produce a total TCI score, which reflects the control of the tumor growth in each group.
Day 7 BMDCs were pulsed with 40 μg of the neoepitope (1 μL of a 20 mM neoepitope solution was added to 7.5 million BMDCs in 200 μL RPMI medium for final peptide concentration of 100 μM). The pulsed BMDCs were washed 4 times and used to immunize a single mouse. Mice were randomized before being used for immunization with individual peptides to control for any cage effects. All immunizations were performed in the presence of CTLA4 blockade, using the […] (clone 9D9, Bio X Cell), administered with the second immunization and every 3 days after tumor challenge except for peptide TGAARFDEF. Tumor diameters were measured in 2 dimensions and the average diameter determined.
TCI quantitates and integrates all 3 aspects of tumor growth: inhibition, period of tumor size stability, and tumor shrinkage (complete response), as published previously ([23]).

tetramer+ CD8+ T cells [2] = assay: Tetramer staining of CD8+ T cells in immunized naive non-tumor-bearing mice; type: in vivo, BALB/cJ mice; conditions: for CD8+ T cell response by tetramer staining (in words): immunized naive, non-tumor-bearing mice; for Tetramer+ cells of total CD8+ T cells, blood: blood harvested 1 week after second immunization
Experimental: In parallel, naive, non–tumor-bearing mice immunized with the neoepitopes were tested for CD8^+ T cell responses to 7 of the 8 neoepitopes. ELISpot assays could not be performed because of the high background generated by incubation of T cells with any DCs. […] Tetramer staining was therefore used for better sensitivity and specificity (Figure 2D). (Tetramers against the neoepitope MAPVRTASM derived from Aebp1 gene could not be made.) Blood and the spleen of the immunized mice were harvested 1 week after the second immunization and stained for CD3, CD8, as well as specific binding to neoepitope tetramers (Figure 2, D and E). Of the 2 neoepitopes able to strongly elicit tumor rejection (TGAARFDEF and AYMKMLSSSL), only TGAARFDEF elicited a measurable CD8^+ T cell response as detected by tetramer staining. […] Of these, the response elicited by VGPEILSSL (derived from Trib3) was the strongest CD8^+ T cell response among all neoepitopes; approximately 10% of the CD8^+ T cells (in blood) in mice immunized with it were tetramer^+. As controls, we measured, in 2 instances, tetramer response in mice immunized with an irrelevant neoepitope; such nonspecific response was never detected.
(§1) The antibody specific for Fixable Viability Dye eFluor 780 was purchased from eBioscience. PE tetramer specific for each neoepitope was synthesized, validated, and tested by MBL International Corporation. Tetramer testing was performed prior to product release according to standard operating procedures of MBL, and the tetramers were further tested for specificity in our laboratory. The FITC-labeled antibody specific for CD8 (clone KT15) was purchased from the same company. BV510 CD3 (clone 17A2) was purchased from Biolegend. Mouse FcR blocking reagent was purchased from Miltenyi Biotec. Flow cytometry was performed using Miltenyi Biotec MACSQuant analyzer. The analysis was done using FlowJo software (FlowJo LLC).

tetramer+ CD8+ T cells [3] = assay: Tetramer staining of CD8+ T cells in non-immunized tumor-bearing mice; type: in vivo, BALB/cJ mice; conditions: unimmunized Meth A tumor-bearing mice, blood and spleen
Experimental: Thus, of the 7 neoepitopes tested, 4 neoepitopes elicited expansion of tetramer^+ CD8^+ T cells on immunization of naive, non–tumor-bearing mice (Figure 2E). We now examined CD8^+ T cell responses to the 4 neoepitopes in unimmunized, tumor-bearing mice (Figure 2F). […] As controls, CD8 cells from mice bearing an antigenically irrelevant tumor (4T1) were tested for tetramer response to all 7 neoepitopes; no response was detected. Altogether, CD8^+ T cell responses in non-immunized tumor-bearing mice and immunized tumor-naive mice were often discordant.
as §1

IFN-γ+ CD8+ cells = IFN-γ+ CD8+ cells from mice immunized with individual peptides; type: in vivo, BALB/cJ mice; conditions: data not shown
[4] = test system: Meth A fibrosarcoma tumor cells; assay: CD8 depletion in vivo during priming of neoepitope-immunized mice; design: species or system BALB/cJ mice; conditions: 250 μg anti-CD8 depleting antibody or isotype control 6 days before first immunization (priming phase)
Experimental: CD8 dependence of neoepitope-elicited tumor immunity was tested in the case of the peptide TGAARFDEF (derived from Gtf2b) by depletion of neoepitope-immunized mice by anti-CD8 depleting antibody or an isotype control antibody during the priming phase alone, as described in the Methods. […] The kinetics of recovery of the depleted CD8^+ cells in mice is not uniform, resulting in lack of abrogation of immunity in 2 of the 5 mice. Because depletion of CD4^+ T cells results in depletion of helper as well as regulatory CD4^+ T cells, and the 2 effects are contradictory, depletion of CD4^+ cells was not attempted.
BALB/cJ mice were injected with 250 μg of isotype control (InVivoMAb rat IgG2b isotype control, Bio X Cell) or CD8-depleting antibody (InVivoMAb anti–mouse CD8α, rat IgG2b, clone 2.43, Bio X Cell) antibodies 6 days before the first immunization (priming phase). The CD8^+ cells remained completely depleted in all mice until day 6; after that the recovery was variable.

[5] = neoepitope-pulsed BMDC immunization, 95,000 Meth A cells challenge

| Sequence | CD8+ T cell response by tetramer staining (in words) (tetramer+ CD8+ T cells [2]) | Tumor rejection activity (in words) [1] | CD8+ T cell response by tetramer staining (in words) (tetramer+ CD8+ T cells [3]) | other results |
| --- | --- | --- | --- | --- |
| AYMKMLSSSL | did not elicit a measurable CD8^+ response | – | – | Immunized mice able to reject the tumor completely [1, 5]: 60%; Immunized mice with relatively prolonged tumor stabilization [1, 5]: 30% |
| IGPRALDVL | good tetramer CD8^+ T cell response | intermediate tumor rejection | significant CD8^+ T cell response | – |
| IGPRAVDVL [reference compound] | – | intermediate tumor rejection activity | – | Tetramer+ cells (CD8+ T cell response), tissue not stated (tetramer+ CD8+ T cells [2]; immunized naive mice, 1 week after second immunization): ~ 0.35% |
| KYLQVASHV | – | inactive | – | – |
| KYLQVASHVGL | strong CD8^+ T cell response | did not elicit tumor rejection | did not elicit such a response | – |
| SYLLGSGEARL | – | – | – | Immunized mice able to reject the tumor completely [1, 5]: about 50% |
| TGAARFDEF | – | complete tumor rejection | could not detect a measurable CD8^+ T cell response | IFN-γ+ CD8+ cell response (IFN-γ+ CD8+ cells): a specific response was detected; Tetramer+ cells of total CD8+ T cells, blood (tetramer+ CD8+ T cells [2]; immunized naive mice): approximately 0.7%; Tetramer+ cells of total CD8+ T cells, spleen (tetramer+ CD8+ T cells [2]; immunized naive mice, spleen harvested 1 week after second immunization): ~0.43%; CD8 dependence of neoepitope-elicited tumor immunity [4]: completely abolished the neoepitope-elicited tumor rejection in 3 of the 5 mice |
| VGPEILSSL | – | no tumor rejection | significant CD8^+ T cell response | Tetramer+ cells of total CD8+ T cells, blood (tetramer+ CD8+ T cells [2]; immunized naive mice): approximately 10% |
| YIRPFETKVK | – | – | – | Tumor Rejection Score (max score = 5) ([1]; BALB/cJ mice immunized with peptide-pulsed BMDCs, Meth A challenge, Table 2): 4.5 |
